Structures can show the parent of a compound that is named as a salt.
Key:
[1] = system: subventricular zone (SVZ); assay: Fluoxetine effect on neurogenesis in the subventricular zone of adult nestin-CFPnuc mice; type: in vivo, mouse; conditions: 15 days treatment
Protocol: (§1) Immunohistochemistry. Tissues were fixed by transcardial perfusion with 30 ml of 4% (w/v) paraformaldehyde in PBS, pH 7.4. The brains were removed, cut longitudinally into two hemispheres and postfixed for 3 hrs at room temperature, then transferred to PBS and kept at 4° C. Serial sagittal sections, 50-μm thick, were cut with a Vibratome 1500 (Vibratome, St. Louis, Mo.). Immunostaining was carried following the standard procedure. The sections were incubated with primary antibodies to the target protein (see the list below) at 4° C. in PBS containing 0.2% Triton-100X and 3% BSA. After thorough washing with PBS, appropriate secondary antibodies (see the list below) were incubated in the same solution for 1 hr at room temperature. After washing with PBS, the sections were mounted on gelatine coated slides with DakoCytomation Fluorescent Mounting Medium (DakoCytomation, Carpinteria, Calif.). For the analysis of 5-bromo-2-deoxyuridine (BrdU) incorporation, sections were treated with 2M HCl for 30 min at 55° C., washed with PBS, treated with 1 mM sodium tetraborate for 10 min at room temperature, and finally washed with PBS. The following antibodies were used: chicken anti-GFP (Aves Laboratories, Tigard, Oreg.) 1:500; guinea pig anti-GFAP (Advanced Immunochemicals, Long Beach, Calif.) 1:500; mouse anti-nestin (Chemicon International, Temecula, Calif.) 1:100; mouse anti-NeuN (Chemicon) 1:800; rabbit anti Dcx (generous gift from Dr. C. A. Walsh, Harvard Medical School) 1:2500; rabbit anti-Prox I (generous gift from Dr. S. J. Pleasure, UCSF) 1:2000; rat anti-BrdU (Serotec, Raleigh, N.C.) 1:400; mouse anti-PSA-NCAM (Chemicon) 1:400; AlexaFluor 488 goat anti-chicken (Molecular Probes, Willow Creek Road, Eugene, Oreg.) 1:500; AlexaFluor 594 goat anti-mouse (Molecular Probes) 1:500; AlexaFluor 568 goat anti-rat (Molecular Probes) 1:500; Cy5 goat anti-guinea pig (Jackson Immunoresearch, West Grove, Pa.) 1:500; Cy5 goat anti-rabbit (Jackson Immunoresearch) 1:500; Texas Red donkey anti-chicken (Jackson Immunoresearch) 1:500.
(§2) Quantification. Quantitative analysis of cell populations was performed by means of design-based (assumption free, unbiased) stereology. Slices were collected using systematic-random sampling. One brain hemisphere was randomly selected per animal. The hemisphere was sliced sagittaly, in a lateral-to-medial direction, from the beginning until the end of the lateral ventricle, thus including the whole DG. The 50 μm slices, obtained with a 1500 Vibratome (Vibratome, St. Louis, Mo.), were collected in 6 parallel sets (5 in the case of the juvenile mice), each set consisting of 12 slices, each slice 300 μm apart from the next.
(§3) For counts in the DG, all the cells of each type described were counted in every slice, excluding those in the uppermost focal plane. The volume of the reference space (of the granule cell layer (GCL)+the subgranular zone (SGZ)) was calculated by the Cavalieri-point method. In the subventricular zone (SVZ), for BrdU counts, all the BrdU stained cells were counted in each slice, excluding those in the uppermost focal plane. For nestin-CFP cells, the two-stage approach was used. At least 10 optical disectors (20×20×20 μm), placed following a systematic-random manner, were applied on each slice. Then the volume of the space reference (of the SVZ) was estimated using the Cavalieri-point method.
All the imaging and quantification procedures were performed using a Zeiss LSM 510 confocal microscope and its software. […]

[2] = exposure of newborn (p4) mice; cited from earlier work
[3] = system: dentate gyrus (DG) of the adult brain; conditions: cited from earlier work
juvenile dentate gyrus = assay: Fluoxetine effect on neuronal precursor classes in the juvenile dentate gyrus of nestin-CFPnuc mice; type: in vivo, mouse
Protocol: as §1, §2
In the young animals, all the BrdU cells were counted in each slice, excluding those in the uppermost focal plane. The number of nestin-CFPnuc stained cells, the QNPs, and the ANPs, was estimated using the two-stage approach. At least 5 optical dissectors (20×20×20 μm) placed in a systematic-random manner, were applied to each slice. Then the volume of the space reference (of the SGZ) was estimated using the Cavalieri-point method.
(§4) All the imaging and quantification procedures were performed using a Zeiss LSM 510 confocal microscope and its software. Statistical analysis and graphs of the numeric data were obtained using SigmaPlot software (SYSTAT, Port Richmond, Calif.) and JMP (SAS Institute Inc., Cary, N.C.).
(§5) On the last day a single injection of BrdU, 150 mg/kg was also administered. […] On the last day they were also given a single injection of BrdU, 150 mg/kg. In both sets of experiments, animals were sacrificed either 24 h or 30 days after the end of the treatment and the BrdU injection.
The action of fluoxetine on stem/progenitor cells was investigated for similarity in both the juvenile and adult brain. […] In the DG of treated juvenile mice, precursor cells can be divided into the same categories as the cells in the adult brain (note that the animals are 20 or 49 days old at the time of analysis). […]

adult dentate gyrus = assay: Fluoxetine effect on neuronal precursor classes in the adult dentate gyrus of nestin-CFPnuc mice (confocal stereology, BrdU labeling); type: in vivo, mouse
Protocol: as §1, §2, §3, §4, §5

[4] = 15 days from p5, 1 day, vs vehicle
[5] = 30 days after end of administration, n=5
[6] = adult, 15 days treatment, 24 h, mean±SEM, n=8
[7] = adult, 15 days treatment, 24 h, n=6
[8] = adult, 15 days treatment, 24 h, vs vehicle
[9] = adult, 15 days treatment, 1 day after BrdU, n=8
[10] = adult, 15 days treatment, sacrificed 30 days later, n=6

CNCCC(Oc1ccc(C(F)(F)F)cc1)c1ccccc1 (stereo not shown) [fluoxetine, fluoxetine hydrochloride]
number of BrdU-labeled cells in the SVZ [1]: 9550±769
number of nestin-CFPnuc cells in the SVZ [1]: 473±55 ×10^3
volume of the SVZ ([1]; in mm³): 0.603±0.051
change in number of BrdU-labeled cells in the SVZ ([1]; vs vehicle): No changes
change in number of nestin-CFPnuc cells, their density and volume of the SVZ ([1]; vs vehicle): no significant changes
anxiety when animals become adults [2]: elevated anxiety
generation of new neurons in the dentate gyrus [3]: increases generation of new neurons
number of ANPs (juvenile dentate gyrus; 15 days from p5, 1 day): 16972±1872
number of QNPs (juvenile dentate gyrus; 15 days from p5, 1 day): 42048±4328
number of dividing (BrdU-labeled) ANP cells (juvenile dentate gyrus; 15 days from p5, 1 day): 1698±184
number of dividing (BrdU-labeled) QNP cells (juvenile dentate gyrus; 15 days from p5, 1 day): 2021±434
number of nestin-CFPnuc cells (juvenile dentate gyrus; 15 days from p5, 1 day): 61256±4970
number of BrdU-positive cells in the DG (juvenile dentate gyrus; 15 days from p5, 1 day after BrdU): 9796±834
change in number of dividing (BrdU-labeled) QNP cells (not statistically significant) (juvenile dentate gyrus; [4]): 28.7%
fraction of BrdU+NeuN+ cells among total BrdU-positive cells (FIG. 7K BrdU-labeled QNP, FIG. 7L BrdU-labeled ANP) (juvenile dentate gyrus; [4]): did not change
increase in number of ANPs (juvenile dentate gyrus; [4]): 52.6%
increase in number of dividing (BrdU-labeled) ANP cells (juvenile dentate gyrus; [4]): 67.7%
increase in number of nestin-CFPnuc cells (juvenile dentate gyrus; [4]): 35.6%
change in number of QNPs (did not reach statistical significance) (juvenile dentate gyrus; 15 days from p5, 1 day, vs vehicle, p=0.134): 23.5%
increase in number of BrdU-positive cells in the DG (juvenile dentate gyrus; 15 days from p5, 30 days after end of administration, vs vehicle): 42.2%
increase in number of BrdU-positive cells in the DG (juvenile dentate gyrus; 15 days treatment from p5, 1 day after BrdU, vs vehicle): 36.3%
fraction of BrdU- and NeuN-double-positive cells among total BrdU-positive cells (juvenile dentate gyrus; 30 days after end of administration): 93.6%
number of BrdU- and NeuN-double-positive cells (juvenile dentate gyrus; [5]): 1892±119
number of BrdU-positive cells in the DG (juvenile dentate gyrus; [5]): 2026±153
increase in number of BrdU- and NeuN-double-positive cells (juvenile dentate gyrus; 30 days after end of administration, vs vehicle): 42.3%
increase in number of BrdU-labeled cells in the DG (adult dentate gyrus; 7-month old mice, 10 mg/kg once per day for 15 days, 24 h after BrdU, vs vehicle): 40.9%
number of BrdU-labeled cells in the DG (adult dentate gyrus; adult, 10 mg/kg/day 15 days, 24 h after BrdU, mean±SEM, n=8): 758±58
change in Dcx-positive cells (compared with PSA-NCAM-positive cells) (adult dentate gyrus; adult, 15 days treatment, 24 h): Identical changes
number of ANP cells (adult dentate gyrus; [6]): 5745±506
number of QNP cells (adult dentate gyrus; [6]): 4675±518
number of BrdU-labeled ANPs (adult dentate gyrus; [7]): 410±33
number of BrdU-labeled QNPs (adult dentate gyrus; [7]): 90±16
number of PSA-NCAM-positive cells (NB1, NB2 and IN) (adult dentate gyrus; adult, 15 days treatment, 24 h, n=8): 11298±719
change in number of BrdU-labeled QNPs (adult dentate gyrus; [8]): not affected
change in number of QNP cells (adult dentate gyrus; [8]): no change
fraction of dividing cells among ANPs (adult dentate gyrus; [8]): did not change
fraction of dividing cells among QNPs (adult dentate gyrus; [8]): did not change
increase in number of ANP cells (adult dentate gyrus; [8]): 49.6%
increase in number of BrdU-labeled ANPs (adult dentate gyrus; [8]): 46.4%
increase in number of CFPnuc-positive cells (QNPs and ANPs together) (adult dentate gyrus; [8]): 24.7%
increase in number of PSA-NCAM-positive cells (NB1, NB2 and IN) (adult dentate gyrus; [8]): 26.5±7.2%
number of IN cells (adult dentate gyrus; [9]): 858±88
number of NB1 cells (adult dentate gyrus; [9]): 6988±538
number of NB2 cells (adult dentate gyrus; [9]): 3452±413
increase in number of NB1 cells (adult dentate gyrus; adult, 15 days treatment, 1 day after BrdU, vs vehicle): 42.1%
fraction of BrdU+NeuN+ cells among total BrdU-positive cells (adult dentate gyrus; adult, 15 days treatment, sacrificed 30 days later): 92.8±1.6%
number of BrdU-labeled NeuN-positive neurons (adult dentate gyrus; [10]): 316±29
number of BrdU-labeled cells in the DG (adult dentate gyrus; [10]): 342±24
increase in number of BrdU-labeled cells in the DG (adult dentate gyrus; adult, 15 days treatment, sacrificed 30 days later, vs vehicle): 46.2%
